Laboratory results published in ChEMBL document CHEMBL4765389, “Antimicrobial and anti-inflammatory activities of short dodecapeptides derived from duck cathelicidin: Plausible mechanism of bactericidal action and endotoxin neutralization” (Eur J Med Chem, 2020).
Active and inactive are the calls of the source. The rule behind the calls is not given here.

Experiments:
Escherichia coli [1] = assay: Bacteriostatic activity against Escherichia coli KCTC 1682 assessed as reduction in colony forming unit at 0.5 times MIC measured for 24 hrs by time kill assay; format: functional
Escherichia coli [2] = assay: Bacteriostatic activity against Escherichia coli KCTC 1682 assessed as reduction in colony forming unit at 0.5 times MIC measured for 12 hrs by time kill assay; format: functional, organism-based
Bacteria [3] = assay: Antibacterial activity against Gram positive bacteria assessed as reduction in bacterial growth incubated for 24 hrs by CLSI based broth dilution method; format: functional; details: read-out: MIC100
[4] = Cytotoxicity against mouse RAW264.7 cells assessed as reduction in cell viability at 10 uM incubated for 24 hrs by MTT assay; format: cell-based; details: read-out: INH
Candida albicans [5] = assay: Antifungal activity against Candida albicans KCTC 7121 assessed as reduction in fungal growth incubated for 24 hrs by CLSI based broth dilution method; format: functional; details: read-out: MIC100
[6] = Antibacterial activity against multidrug-resistant Pseudomonas aeruginosa CCARM 2109 assessed as reduction in bacterial growth incubated for 24 hrs by CLSI based broth dilution method; format: functional; details: read-out: MIC100
[7] = Therapeutic index, ratio of HC10 for sheep RBC to geometric mean MIC for yeast; format: toxicity; details: sheep red blood cells, read-out: TI
Escherichia coli [8] = assay: Antibacterial activity against Escherichia coli KCTC 1682 assessed as reduction in bacterial growth incubated for 24 hrs by CLSI based broth dilution method; format: functional; details: read-out: MIC100
[9] = Cytotoxicity against mouse RAW264.7 cells assessed as reduction in cell viability at 20 uM incubated for 24 hrs by MTT assay; format: cell-based; details: read-out: INH
Saccharomyces cerevisiae = assay: Antifungal activity against yeast assessed as reduction in fungal growth incubated for 24 hrs by CLSI based broth dilution method; format: functional; details: read-out: MIC100
[10] = Hemolytic activity in sheep RBC assessed as reduction in hemoglobin at 64 uM incubated for 1 hr; format: ADME, cell-based, Ovis aries, Erythrocyte; details: sheep red blood cells (erythrocytes), read-out: Activity
[11] = Therapeutic index, ratio of HC10 for sheep RBC to geometric mean MIC for gram negative bacteria; format: toxicity; details: sheep red blood cells, read-out: TI
Staphylococcus aureus [12] = assay: Antibacterial activity against Staphylococcus aureus KCTC 1621 assessed as reduction in bacterial growth incubated for 24 hrs by CLSI based broth dilution method; format: functional; details: read-out: MIC100
[13] = Therapeutic index, ratio of HC10 for sheep RBC to geometric mean MIC for gram positive bacteria; format: toxicity; details: sheep red blood cells, read-out: TI
[14] = Antibacterial activity against multidrug-resistant Pseudomonas aeruginosa CCARM 2095 assessed as reduction in bacterial growth incubated for 24 hrs by CLSI based broth dilution method; format: functional; details: read-out: MIC100
Erythrocyte [15] = assay: Hemolytic activity in sheep RBC assessed as reduction in hemoglobin at 256 uM incubated for 1 hr; format: ADME, cell-based, Ovis aries
Pseudomonas aeruginosa = assay: Antibacterial activity against Pseudomonas aeruginosa KCTC 1637 assessed as reduction in bacterial growth incubated for 24 hrs by CLSI based broth dilution method; format: functional; details: read-out: MIC100
Candida albicans [16] = assay: Antifungal activity against Candida albicans KCTC 7965 assessed as reduction in fungal growth incubated for 24 hrs by CLSI based broth dilution method; format: functional; details: read-out: MIC100
Staphylococcus aureus [17] = assay: Antibacterial activity against methicillin-resistant Staphylococcus aureus CCARM 3095 assessed as reduction in bacterial growth incubated for 24 hrs by CLSI based broth dilution method; format: functional; details: read-out: MIC100
[18] = Cytotoxicity against mouse NIH/3T3 cells assessed as reduction in cell viability at 10 uM incubated for 24 hrs by MTT assay; format: cell-based, NIH3T3; details: read-out: INH
[19] = Retention time of the compound by RP-HPLC method; format: physicochemical
Staphylococcus aureus [20] = assay: Antibacterial activity against methicillin-resistant Staphylococcus aureus CCARM 3090 assessed as reduction in bacterial growth incubated for 24 hrs by CLSI based broth dilution method; format: functional; details: read-out: MIC100
Erythrocyte [21] = assay: Hemolytic activity in sheep RBC assessed as reduction in hemoglobin incubated for 1 hr; format: ADME, cell-based, Ovis aries
[22] = Cytotoxicity against mouse NIH/3T3 cells assessed as reduction in cell viability at 20 uM incubated for 24 hrs by MTT assay; format: cell-based, NIH3T3; details: NIH/3T3 cells, read-out: INH
Enterococcus faecium = assay: Antibacterial activity against vancomycin-resistant Enterococcus faecium ATCC 51559 assessed as reduction in bacterial growth incubated for 24 hrs by CLSI based broth dilution method; format: functional; details: read-out: MIC100
Bacteria [23] = assay: Antibacterial activity against Gram negative bacteria assessed as reduction in bacterial growth incubated for 24 hrs by CLSI based broth dilution method; format: functional; details: read-out: MIC100
Staphylococcus aureus [24] = assay: Antibacterial activity against methicillin-resistant Staphylococcus aureus CCARM 3089 assessed as reduction in bacterial growth incubated for 24 hrs by CLSI based broth dilution method; format: functional; details: read-out: MIC100
Salmonella typhimurium = assay: Antibacterial activity against Salmonella typhimurium KCTC 1926 assessed as reduction in bacterial growth incubated for 24 hrs by CLSI based broth dilution method; format: functional, Salmonella enterica subsp. enterica serovar Typhimurium; details: Salmonella enterica, read-out: MIC100
[25] = test system: Staphylococcus epidermidis; assay: Antibacterial activity against Staphylococcus epidermidis KCTC 1917 assessed as reduction in bacterial growth incubated for 24 hrs by CLSI based broth dilution method; format: functional; details: read-out: MIC100
Bacillus subtilis = assay: Antibacterial activity against Bacillus subtilis KCTC 3068 assessed as reduction in bacterial growth incubated for 24 hrs by CLSI based broth dilution method; format: functional; details: read-out: MIC100
RAW264.7 [26] = assay: Antiinflammatory activity in mouse RAW264.7 cells assessed as suppression of LPS binding by measuring LPS-FITC aggregation at 10 uM pretreated with LPS for 1 hr followed by compound addition and measured after 30 mins by flowcytometry analysis (reference value: 67.93 %); format: functional; details: 0.5 h
Lipopolysaccharide (LPS) = assay: Inhibition of Escherichia coli O111:B4 LPS aggregation assessed as increase in FITC-LPS dissociation at 2 uM by spectrofluorometry
RAW264.7 [27] = assay: Antiinflammatory activity in mouse RAW264.7 cells assessed as neutralization of LPS binding by measuring LPS-FITC aggregation at 10 uM pretreated with LPS for 1 hr followed by compound addition and measured after 1 hr by flowcytometry analysis (reference value: 48.12 %); format: functional
RAW264.7 [28] = assay: Antiinflammatory activity against mouse RAW264.7 cells assessed as reduction in LPS-induced nitrite level at 5 uM incubated for 24 hrs by Griess reagent based assay relative to control; format: functional
RAW264.7 [29] = assay: Antiinflammatory activity against mouse RAW264.7 cells assessed as reduction in LPS-induced TNFalpha level at 10 uM incubated for 24 hrs by […] relative to control; format: functional

With O=C(N[C@H](CO)[C@H](O)c1ccc([N+](=O)[O-])cc1)C(Cl)Cl the Activity (Escherichia coli [1]) was “inactive” and the Activity (Escherichia coli [2]) was “Active”.

H-FWQLVPLAIKIYRAWKRR-NH2 showed an MIC (Bacteria [3]) of 20.5 µM, a cytotoxicity at 24 h, 10 µM [4] of 40% and an MIC (Candida albicans [5]) of 16 µM. The MIC [6] was 32 µM, the selectivity ratio [7] was 0.1 and the MIC (Escherichia coli [8]) was 16 µM. The cytotoxicity at 24 h, 20 µM [9] was < 10%, the MIC (Saccharomyces cerevisiae) was 16 µM and the hemolysis at 1 h, 64 µM [10] was 100%. The selectivity ratio [11] was 0.1, the MIC (Staphylococcus aureus [12]) was 8 µM and the selectivity ratio [13] was 0.1. For the same compound, the MIC [14] was 32 µM, the Activity (Erythrocyte [15]) was “Non-Toxic” and the MIC (Pseudomonas aeruginosa) was 16 µM. For the same compound, the MIC (Candida albicans [16]) was 16 µM, the MIC (Staphylococcus aureus [17]) was 32 µM and the cytotoxicity at 24 h, 10 µM [18] was 40%. The Retention_time [19] was 29 min, the MIC (Staphylococcus aureus [20]) was 16 µM and the HC10 (Erythrocyte [21]) was 1.3 µM. For the same compound, the cytotoxicity at 24 h, 20 µM [22] was < 10%, the MIC (Enterococcus faecium) was 32 µM and the MIC (Bacteria [23]) was 20.8 µM. It also gave an MIC (Staphylococcus aureus [24]) of 32 µM, an MIC (Salmonella typhimurium) of 8 µM and an MIC [25] of 16 µM. The MIC (Bacillus subtilis) was 8 µM.

In the case of H-LAIKIYRAWKRR-NH2, the Activity (RAW264.7 [26]) is reported as 59.24%, the MIC (Bacteria [3]) is reported as 21.1 µM and the MIC (Candida albicans [5]) is reported as 16 µM. The MIC [6] was 16 µM, the inhibition (Lipopolysaccharide (LPS)) was “Active” and the selectivity ratio [7] was 42.7. For the same compound, the MIC (Escherichia coli [8]) was 16 µM, the cytotoxicity at 24 h, 20 µM [9] was < 10% and the MIC (Saccharomyces cerevisiae) was 12 µM. For the same compound, the selectivity ratio [11] was 33.7, the Activity (RAW264.7 [27]) was 42.35% and the MIC (Staphylococcus aureus [12]) was 8 µM. For the same compound, the selectivity ratio [13] was 243, the MIC [14] was 32 µM and the Activity (Erythrocyte [15]) was “Non-Toxic”. The MIC (Pseudomonas aeruginosa) was 4 µM, the inhibition at 5 µM (RAW264.7 [28]) was < 10% and the MIC (Candida albicans [16]) was 8 µM. The MIC (Staphylococcus aureus [17]) was 32 µM, the Retention_time [19] was 16.4 min and the inhibition at 10 µM (RAW264.7 [29]) was < 10%. The MIC (Staphylococcus aureus [20]) was 32 µM, the HC10 (Erythrocyte [21]) was > 256 µM and the cytotoxicity at 24 h, 20 µM [22] was < 10%. It also gave an MIC (Enterococcus faecium) of 32 µM, an MIC (Bacteria [23]) of 15.2 µM and an MIC (Staphylococcus aureus [24]) of 32 µM. It also gave an MIC (Salmonella typhimurium) of 8 µM, an MIC [25] of 4 µM and an MIC (Bacillus subtilis) of 8 µM.
